# Entries after “also recorded” stand apart in the source; their conditions may differ.
# Columns and labels:
# [1] = test system: serotonin in the prefrontal region; test: Concentration of serotonin in the prefrontal region of rats by microdialysis; assay type: in vivo, rat
# Experimental: The active ingredient of the agents of the present invention has the effect of increasing the concentration of serotonin in the synaptic cleft via inhibitory activity on SERT binding.
# Male SD rats which were 10 to 12 weeks of age were used. The concentration of serotonin in the prefrontal region of each rat was measured in accordance with a published document (Kehr J., and Yoshitake T. (2006) Monitoring brain chemical signals by microdialysis. In: Encyclopedia of Sensors, Vol. 6. (Eds. C. A. Grimes, E. C. Dickey and M. V. Pishko) American Scientific Publishers, USA. 287-312) by microdialysis. Specifically, a dialysis probe was implanted in the prefrontal region of each rat under isoflurane anesthesia. Five days after the implantation surgery, artificial cerebrospinal fluid (148 mM of NaCl, 4 mM of KCl, 0.8 mM of MgCl2, 1.4 mM of CaCl2, 1.2 mM of Na2HPO4, 0.3 mM of NaH2PO4, pH 7.2)) was perfused at the flow rate of 1 μl/min under ambulatory conditions without anesthesia. 2,5-Piperazinedione,3,6-bis(phenylmethyl)-,(3S,6S) was suspended in 0.5% sodium carboxymethylcellulose (CMC-Na), and 2 mg/kg, 20 mg/kg, and 200 mg/kg were orally administered for 14 consecutive days. The amount of […] in 15 μl of perfusion liquid collected immediately before the final oral administration and every 30 minutes after the oral administration was quantitatively determined by HPLC-ECD. The results obtained within the period from 1 hour before the oral administration to 3 hours after the oral administration are shown in FIG. 1, where the time immediately before the oral administration of the test sample is set to 0 minute.
# [2] = test system: loser mice (mice in a depressive state); test: Morris water maze test with mice in a depressive state (loser mice); assay type: in vivo, mouse; conditions: loser C57BL/6 mice
# Experimental: The active ingredient of the agents of the present invention has antidepressive action. Antidepressive action as SSRI may be measured by a method described in a published document (Exp Anim, 59(2), 191-197, 2010). Specifically, first, a Morris water maze test is conducted for 8 days using mice.
# The active ingredient of the agents of the present invention has learning motivation improving action. The Morris water maze test has been reported as a method for measuring spatial memory and learning (Learn. Motiv. 12, 239-260 (1981)). In this test, the time required to reach an escape platform (escape latency) is used as a parameter for evaluation, because mice will remember their surrounding scenery and swim in a pool filled with water to try to find and reach the escape platform, which is a goal, with their memory as a guide. Since mice used in a main test are chosen from those which were subjected to the Morris water maze test for 8 days and could not reach the escape platform within […], a reduction in the time required to reach the escape platform can be regarded as an improvement in learning motivation.
# Antidepressive action was measured in accordance with a published document (Exp Anim, 59(2), 191-197, 2010). […]
# [3] = target: AChE (Homo sapiens, UniProt P22303); test: AChE inhibitory action with MATP+ substrate; assay type: biochemical; conditions: absorbance at 412 nm, read-out: concentration (IC50) required for 50% inhibition of AChE
# Experimental: (§1) The active ingredient of the agents of the present invention has AChE inhibitory action. AChE inhibitory action may be measured with MATP+ (1,1-dimethyl-4-acetylthiomethylpiperidine), which is a substrate having high selectivity for AChE (Biol Pharma Bull, 33(4), 702-706, 2010). Specifically, AChE is reacted with MATP+, and measurement is conducted using as an indicator a change in absorbance at 412 nm associated with reaction of detection reagent DNTB (5,5′-dithiobis(2-nitrobenzoic acid)).
# as §1, with “AChE” for “The active ingredient of the agents of the present invention has AChE inhibitory action. AChE”, “action was” for “action may be”, “AChE was” for “AChE is”, “measurement was” for “measurement is”
# [4] = test system: acetylcholine in the hippocampus; test: Concentration of acetylcholine in the hippocampus of rats by microdialysis; assay type: in vivo, rat; conditions: 200 mg/kg oral once
# From the text: It is considered that the hippocampus region of the brain, in which a cholinergic neuron is known to be involved, has a function related to learning and memory. Since cholinergic neuron is impaired in degenerative disease with symptoms such as reduced learning and memory, an increase in the concentration of acetylcholine in the hippocampus will improve the symptoms such as reduced learning and memory. The concentration of acetylcholine in the rat hippocampus was increased about 2.5-fold, as measured by microdialysis, by the active ingredient of the agents of the present invention.
# A dialysis probe was embedded in the hippocampus of each rat, and measurement was conducted as in Example 1. 2,5-Piperazinedione,3,6-bis(phenylmethyl)-,(3S,6S) was suspended in 0.5% CMC-Na, and 200 mg/kg was orally administered once. The amount of acetylcholine in 15 μl of perfusion liquid collected immediately before the […] oral administration and every 30 minutes after the oral administration was quantitatively determined by HPLC-ECD. The results obtained within the period from 1 hour before the oral administration to 3 hours after the oral administration are shown in FIG. 3, where the time immediately before the oral administration of the test sample is set to 0 minute. […]
# [5] = test system: rats with scopolamine-induced impairment of learning; test: Radial maze test using rats with scopolamine-induced impairment of learning; assay type: in vivo, rat; conditions: 200 mg/kg oral, scopolamine 0.5 mg/kg i.p., 8-direction radial maze
# Experimental: Scopolamine is a non-selective competitive antagonist of muscarinic acetylcholine receptors. Laboratory animals with scopolamine-induced impairment of learning are widely used as a memory disorder model.
# Using SD male rats which were 7 weeks of age, practice training was conducted while the rats were under food deprivation, and thereafter a main test was conducted.
# Food was placed at the end of each arm of an 8-direction radial maze, and an animal was placed on a platform at the center of the maze. Completion of one trial was when the animal finished acquiring food from all arms or when 10 minutes elapsed since the animal was placed on the platform. The training was conducted once a day. “Correct choice” was defined as visiting an unselected arm in the trial, and “wrong choice” was defined as visiting an arm from where food had already been acquired.
# 2,5-Piperazinedione,3,6-bis(phenylmethyl)-,(3S,6S) was suspended in 0.5% CMC-Na, and 20 mg/kg and 200 mg/kg were orally administered to the rats which attained the standard in the above practice training trials. Ten minutes after the oral administration, 0.5 mg/kg of scopolamine was intraperitoneally administered. Thirty minutes after the intraperitoneal administration of scopolamine, an 8-direction radial maze test was conducted, and the number of wrong choices and the time taken for the […] to acquire all food were counted. […]
# [6] = test system: mice; test: Single-dose acute toxicity test; assay type: in vivo, mouse; conditions: 2 g/kg single dose
# [7] = test system: rats; assay type: in vivo; conditions: 28-day repeated dose
# [8] = Ames test
# [9] = Chromosome aberration test
# [10] = test system: mice; test: Mice micronucleus test; assay type: in vivo
# [11] = listed as active ingredient of the agents of the present invention
# Sequence of AChE (P22303 32-614): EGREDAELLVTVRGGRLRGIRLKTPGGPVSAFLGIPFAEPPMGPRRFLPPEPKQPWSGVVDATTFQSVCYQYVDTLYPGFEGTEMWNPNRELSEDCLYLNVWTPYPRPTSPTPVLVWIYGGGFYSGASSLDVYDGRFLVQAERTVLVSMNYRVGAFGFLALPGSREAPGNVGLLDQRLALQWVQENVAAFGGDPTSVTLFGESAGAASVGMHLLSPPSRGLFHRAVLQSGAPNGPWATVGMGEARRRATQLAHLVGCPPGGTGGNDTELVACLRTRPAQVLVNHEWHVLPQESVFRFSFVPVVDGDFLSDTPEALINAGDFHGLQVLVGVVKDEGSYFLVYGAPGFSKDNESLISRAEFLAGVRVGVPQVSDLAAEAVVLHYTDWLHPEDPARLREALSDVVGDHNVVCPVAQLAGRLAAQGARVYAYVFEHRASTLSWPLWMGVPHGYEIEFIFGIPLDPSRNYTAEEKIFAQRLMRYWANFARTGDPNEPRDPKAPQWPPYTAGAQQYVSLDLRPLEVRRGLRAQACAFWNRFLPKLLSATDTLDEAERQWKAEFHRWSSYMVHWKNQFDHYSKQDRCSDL
structure (smiles),measurement,setting,value
"O=C1N[C@@H](Cc2ccccc2)C(=O)N[C@H]1Cc1ccccc1 [2,5-piperazinedione,3,6-bis(phenylmethyl)-,(3S,6S)]",concentration of serotonin in the prefrontal region,"[1]; male SD rats, 20 mg/kg oral, 14 consecutive days",increased significantly
same,concentration of serotonin in the prefrontal region,"[1]; male SD rats, 200 mg/kg oral, 14 consecutive days",increased significantly
same,concentration of serotonin in the prefrontal region,"[1]; normal rats, oral for 2 weeks, across doses",increased dose-dependently and significantly
same,escape latency,[2]; oral 0.2 mg/kg or more,reduced significantly
same,escape latency,"[2]; oral 0.02, 0.2, 2 and 20 mg/kg, dose dependence","dose-dependent, significant reduction; also recorded: reduced dose-dependently"
same,IC50,[3],3.4 µM
same,increase of concentration of acetylcholine in the hippocampus,[4],2.5 fold
same,increase of concentration of acetylcholine in the hippocampus,[4]; [11],about 2.5 fold
same,percentage of correct choices,[5],improved significantly
same,percentage of correct choices,[5]; [11],significantly improved
same,toxicity in single-dose acute toxicity test,[6],no toxicity
same,no-observable-effect level,[7],≥ 10 mg/kg/day
same,mutagenicity in Ames test,[8],no mutagenicity
same,mutagenicity in chromosome aberration test,[9],no mutagenicity
same,mutagenicity in mice micronucleus test,[10],no mutagenicity

# From US9877960B2 (priority 2012, dated 2018)
